# Assay results reported in PubChem BioAssay AID1963871 (Molecular Pharmacology Branch, DTP, NCI, 2024).
# pIC50: −log10 of the molar value.
# System: KRAS-mutant PDC multicell tumor spheroid viability
# Assay: Anticancer human tumor 521955-158-R2-J5-PDC patient-derived pancreatic carcinoma cell line growth inhibition [KRAS2]
# Settings: for pIC50: curve of first compound; for viability, T/C: stronger effect = lower value
# Source text: Multicellular complex tumor spheroid response to RAS pathway inhibitors in combination with a targeted agents in patient-derived cell lines with oncogenic KRAS variants from multiple cancer types
# A high-throughput screen of multi-cell type tumor spheroids was designed to identify active combinations of targeted small molecules and KRAS pathway inhibitors. Complex spheroids include a stromal component modeled by human endothelial cells (HUVEC) and fibroblasts modeled by human mesenchymal stem cells (MSCs). The concentration ranges selected for each drug and investigational agent were based upon clinically achievable concentrations if the clinical Cmax of the agent was known.
# Compounds. The drugs and investigational agents: BI-3406 (NSC825286), BAY-293 (NSC824723), batoprotafib (TNO155; NSC825523), sotorasib (AMG 510; NSC818433), MRTX1257 (NSC819558), elimusertib (BAY 1895344; NSC800525), molibresib (GSK525762; NSC774829), temuterkib (LY3214996; NSC803410), venetoclax (NSC766270), alisertib (NSC759677), olaparib (NSC753686), talazoparib (NSC767125), erdafitinib (NSC781556), ipatasertib (NSC767898), cabozantinib (NSC761068), nintedanib (NSC756659), abemaciclib (NSC768073), docetaxel (NSC628503), trametinib (NSC758246), and sapanisertib (NSC764658) were obtained from the National Cancer Institute (NCI) Developmental Therapeutics Program Chemical Repository. The FDA-approved anticancer drug set is available from the Developmental Therapeutics Program. […] The stock solutions were prepared in dimethyl sulfoxide (DMSO, Sigma-Aldrich, St. Louis, MO, cat. D2650) at 800-fold the tested concentration and stored at -70 degrees C prior to their use. All drugs and investigational agents were tested over a range starting from a high concentration at or near the clinical Cmax and decreasing in half-log increments. If the clinical Cmax for an agent had not been determined, the highest concentration tested was 10 microM.
# Cell Culture. All cells were maintained in an incubator at 37 degrees C and 5% CO2 with 95% humidity. The PDC lines were cultured according to standard operating procedures established by the NCI PDMR (https://pdmr.cancer.gov/sops/default.htm). Briefly, all PDCs were thawed and cultured in Matrigel-coated flasks prepared with a working solution of 1X Ham's F-12 nutrient mix, without supplementation (Invitrogen, Waltham, MA, cat. 11765054), 100 U/mL penicillin-streptomycin (Invitrogen, cat. 15140122), and 2.5% Matrigel (Corning Inc., Corning, NY, cat. 354248) for the first three passages. All PDCs were cultured in complete DMEM/F-12 media containing advanced DMEM/F-12 (Invitrogen, cat. 12634028), 4.9% defined fetal bovine serum, heat inactivated (HyClone Laboratories Inc., Logan, UT, cat. SH30070.03HI), 389 ng/mL hydrocortisone (Sigma-Aldrich, cat. H4001), 9.7 ng/mL human EGF recombinant protein (Invitrogen, cat. PHG0313), 23.4 microg/mL adenine (Sigma-Aldrich, cat. A2786), 97.3 U/mL penicillin-streptomycin (Invitrogen, cat. 15140122), 1.9 mM L-glutamine (Invitrogen, cat. 25030081), and 9.7 microM Y-27632 dihydrochloride (Tocris Bioscience, Bristol, United Kingdom, cat. 1254). The PDCs were cultured in complete DMEM/F12 media without 9.7 microM Y-27632 dihydrochloride for at least two passages prior to the screen. The established cell line HOP-62 was cultured in RPMI 1640 medium, HEPES (Invitrogen, cat. 22400105) with 10% defined fetal bovine serum (HyClone Laboratories Inc., cat. SH30070.03) and 2 mM L-glutamine (Invitrogen, cat. 25030081). The pooled donor HUVEC were cultured in endothelial cell growth medium 2 (PromoCell, Heidelberg, Germany, cat. C-22011) and the hMSC were cultured in mesenchymal stem cell growth medium 2 (PromoCell, cat. C-28009). For all experiments, HUVEC and hMSC were used at passages </=5, while the malignant cell lines were used at passages </=15. […]
# 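Note: viability read after seven days of drug exposure.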
smiles,measurement,setting,value
CC(=O)Nc1cccc(-n2c(=O)n(C3CC3)c(=O)c3c(Nc4ccc(I)cc4F)n(C)c(=O)c(C)c32)c1 + CNCc1ccccc1-c1csc(C(C)Nc2nc(C)nc3cc(OC)c(OC)cc23)c1,pIC50,second compound 0.1 µM,9.60
same,pIC50,second compound 0.316 µM,9.55
same,pIC50,second compound 1 µM,9.51
same,pIC50,second compound 3.16 µM,> 10.00
same,pIC50,second compound 10 µM,> 10.00
same,"viability, T/C","second compound 0.1 µM, first compound 0.0001 µM",70.5%
same,"viability, T/C","second compound 0.1 µM, first compound 0.000316 µM",44.9%
same,"viability, T/C","second compound 0.1 µM, first compound 0.001 µM",28.5%
same,"viability, T/C","second compound 0.1 µM, first compound 0.00316 µM",27.1%
same,"viability, T/C","second compound 0.1 µM, first compound 0.01 µM",20.9%
same,"viability, T/C","second compound 0.1 µM, first compound 0.0316 µM",15.9%
same,"viability, T/C","second compound 0.316 µM, first compound 0.0001 µM",69%
same,"viability, T/C","second compound 0.316 µM, first compound 0.000316 µM",43.6%
same,"viability, T/C","second compound 0.316 µM, first compound 0.001 µM",38%
same,"viability, T/C","second compound 0.316 µM, first compound 0.00316 µM",26.3%
same,"viability, T/C","second compound 0.316 µM, first compound 0.01 µM",22.2%
same,"viability, T/C","second compound 0.316 µM, first compound 0.0316 µM",14.1%
same,"viability, T/C","second compound 1 µM, first compound 0.0001 µM",81.5%
same,"viability, T/C","second compound 1 µM, first compound 0.000316 µM",39.6%
same,"viability, T/C","second compound 1 µM, first compound 0.001 µM",35.7%
same,"viability, T/C","second compound 1 µM, first compound 0.00316 µM",24.5%
same,"viability, T/C","second compound 1 µM, first compound 0.01 µM",7.75%
same,"viability, T/C","second compound 1 µM, first compound 0.0316 µM",2.12%
same,"viability, T/C","second compound 3.16 µM, first compound 0.0001 µM",1.11%
same,"viability, T/C","second compound 3.16 µM, first compound 0.000316 µM",0.2%
same,"viability, T/C","second compound 3.16 µM, first compound 0.001 µM",1.26%
same,"viability, T/C","second compound 3.16 µM, first compound 0.00316 µM",0.11%
same,"viability, T/C","second compound 3.16 µM, first compound 0.01 µM",0.95%
same,"viability, T/C","second compound 3.16 µM, first compound 0.0316 µM",0.19%
same,"viability, T/C","second compound 10 µM, first compound 0.0001 µM",0.21%
same,"viability, T/C","second compound 10 µM, first compound 0.000316 µM",0.24%
same,"viability, T/C","second compound 10 µM, first compound 0.001 µM",0.18%
same,"viability, T/C","second compound 10 µM, first compound 0.00316 µM",0.4%
same,"viability, T/C","second compound 10 µM, first compound 0.01 µM",2.28%
same,"viability, T/C","second compound 10 µM, first compound 0.0316 µM",0.26%
CC(=O)Nc1cccc(-n2c(=O)n(C3CC3)c(=O)c3c(Nc4ccc(I)cc4F)n(C)c(=O)c(C)c32)c1,"viability, T/C",compound 0.0001 µM,77.7% [middle of 5 runs]
same,"viability, T/C",compound 0.000316 µM,47.2% [middle of 5 runs]
same,"viability, T/C",compound 0.001 µM,36.5% [middle of 5 runs]
same,"viability, T/C",compound 0.00316 µM,29.1% [middle of 5 runs]
same,"viability, T/C",compound 0.01 µM,24.1% [middle of 5 runs]
same,"viability, T/C",compound 0.0316 µM,17.4% [middle of 4 runs]
same,IC50,curve of compound,0.337 nM [middle of 5 runs]
